Source: ChEMBL document CHEMBL3621057, “Multicomponent Synthesis and Biological Evaluation of a Piperazine-Based Dopamine Receptor Ligand Library” (ACS Med Chem Lett, 2015)
Active and inactive are the calls of the source. No cut-off for these calls is given here.

Tests used:
[1] = molecular target: D(3) dopamine receptor (Homo sapiens, UniProt P35462); test: Displacement of [3H]spiperone from human dopamine D3 receptor expressed in CHO cells; assay type: cell-based
[2] = molecular target: T1, D(2) dopamine receptor (Homo sapiens, UniProt P14416); test: Displacement of [3H]spiperone from human dopamine D2L receptor expressed in CHO cells; assay type: cell-based
T1 sequence (P14416 whole entry): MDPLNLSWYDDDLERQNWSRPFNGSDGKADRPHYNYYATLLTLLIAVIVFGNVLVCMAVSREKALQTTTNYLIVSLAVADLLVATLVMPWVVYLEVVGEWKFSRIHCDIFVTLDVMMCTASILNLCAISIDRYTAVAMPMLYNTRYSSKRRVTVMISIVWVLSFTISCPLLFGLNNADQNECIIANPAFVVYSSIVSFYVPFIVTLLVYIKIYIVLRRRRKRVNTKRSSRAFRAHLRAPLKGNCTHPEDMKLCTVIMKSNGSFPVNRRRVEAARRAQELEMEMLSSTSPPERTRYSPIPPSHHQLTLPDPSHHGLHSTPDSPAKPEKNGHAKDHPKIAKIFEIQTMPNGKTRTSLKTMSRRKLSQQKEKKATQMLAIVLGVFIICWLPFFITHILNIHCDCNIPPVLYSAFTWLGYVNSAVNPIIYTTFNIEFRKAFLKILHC

[3] = molecular target: T1, D(2) dopamine receptor; test: Antagonist activity at human D2S receptor transfected in HEK293T cells assessed as forskolin-induced cAMP accumulation by BRET assay; assay type: functional, cell-based; conditions: HEK-293T
[4] = molecular target: D(1A) dopamine receptor (Homo sapiens, UniProt P21728); test: Displacement of [3H]SCH23390 from human dopamine D1 receptor expressed in HEK cells; assay type: cell-based, HEK293
D(1A) dopamine receptor, sequence (P21728 whole entry): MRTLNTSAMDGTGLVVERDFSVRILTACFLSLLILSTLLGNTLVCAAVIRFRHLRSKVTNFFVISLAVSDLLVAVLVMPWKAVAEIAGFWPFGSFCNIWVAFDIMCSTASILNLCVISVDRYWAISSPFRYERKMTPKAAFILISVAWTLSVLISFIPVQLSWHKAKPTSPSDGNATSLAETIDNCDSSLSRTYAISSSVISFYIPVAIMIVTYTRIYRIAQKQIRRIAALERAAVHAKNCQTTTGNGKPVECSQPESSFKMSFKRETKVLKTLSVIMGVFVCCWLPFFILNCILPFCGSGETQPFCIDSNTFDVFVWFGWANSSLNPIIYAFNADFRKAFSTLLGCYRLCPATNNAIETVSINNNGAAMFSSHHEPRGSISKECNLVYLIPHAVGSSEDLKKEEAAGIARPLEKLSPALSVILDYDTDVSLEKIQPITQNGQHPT

[5] = molecular target: D(1B) dopamine receptor (Homo sapiens, UniProt P21918); test: Displacement of [3H]SCH23390 from human dopamine D5 receptor expressed in HEK cells; assay type: cell-based, HEK293
D(1B) dopamine receptor, sequence (P21918 whole entry): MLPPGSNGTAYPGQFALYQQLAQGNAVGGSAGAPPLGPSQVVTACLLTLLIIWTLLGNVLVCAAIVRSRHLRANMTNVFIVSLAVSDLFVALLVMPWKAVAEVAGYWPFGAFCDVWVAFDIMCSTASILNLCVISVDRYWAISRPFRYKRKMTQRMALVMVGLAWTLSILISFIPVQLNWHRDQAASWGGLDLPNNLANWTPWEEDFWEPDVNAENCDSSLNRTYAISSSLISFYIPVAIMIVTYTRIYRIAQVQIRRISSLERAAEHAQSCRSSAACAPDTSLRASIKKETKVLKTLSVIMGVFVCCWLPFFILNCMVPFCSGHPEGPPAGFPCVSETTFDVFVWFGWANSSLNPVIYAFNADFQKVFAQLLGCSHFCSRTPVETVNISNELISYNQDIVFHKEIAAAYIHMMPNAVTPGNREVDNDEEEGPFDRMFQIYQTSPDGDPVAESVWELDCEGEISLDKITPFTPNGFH

[6] = molecular target: T1, D(2) dopamine receptor; test: Displacement of [3H]spiperone from human dopamine D2S receptor expressed in CHO cells; assay type: cell-based
[7] = molecular target: T2, D(4) dopamine receptor (Homo sapiens, UniProt P21917); test: Displacement of [3H]spiperone from human dopamine D4 receptor expressed in CHO cells; assay type: cell-based
T2 sequence (P21917 whole entry): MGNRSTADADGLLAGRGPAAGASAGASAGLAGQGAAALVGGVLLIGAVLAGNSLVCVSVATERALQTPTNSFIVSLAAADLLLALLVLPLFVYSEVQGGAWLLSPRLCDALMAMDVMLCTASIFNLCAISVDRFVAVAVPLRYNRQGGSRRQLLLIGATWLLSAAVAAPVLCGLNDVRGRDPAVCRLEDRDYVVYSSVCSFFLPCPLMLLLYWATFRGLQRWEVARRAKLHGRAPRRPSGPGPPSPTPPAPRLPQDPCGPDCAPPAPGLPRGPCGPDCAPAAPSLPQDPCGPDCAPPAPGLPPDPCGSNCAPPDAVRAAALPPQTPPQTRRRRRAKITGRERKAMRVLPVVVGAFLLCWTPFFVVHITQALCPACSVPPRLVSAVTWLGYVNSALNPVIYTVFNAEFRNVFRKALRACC

D(3) dopamine receptor, sequence (P35462 whole entry): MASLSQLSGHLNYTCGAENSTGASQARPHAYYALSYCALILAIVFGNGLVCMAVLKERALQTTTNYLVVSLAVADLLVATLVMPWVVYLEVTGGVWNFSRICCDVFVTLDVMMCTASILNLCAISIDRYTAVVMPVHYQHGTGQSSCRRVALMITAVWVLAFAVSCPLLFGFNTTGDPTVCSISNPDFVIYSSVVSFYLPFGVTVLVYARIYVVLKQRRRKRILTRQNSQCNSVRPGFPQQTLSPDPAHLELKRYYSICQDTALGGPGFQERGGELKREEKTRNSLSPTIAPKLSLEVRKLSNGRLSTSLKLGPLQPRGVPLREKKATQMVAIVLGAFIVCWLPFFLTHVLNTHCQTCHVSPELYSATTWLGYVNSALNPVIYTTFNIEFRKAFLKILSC

SMILES	Ki [1] [nM]	Ki [2] [nM]	Activity [3]	Ki [4] [nM]	Ki [5] [nM]	Ki [6] [nM]	Ki [7] [nM]
CCCN(CCN1CCN(Cc2cc3ccccc3[nH]2)CC1)Cc1ccc(Br)cc1	930	920					
CCCN(CCN1CCN(Cc2cc3ccccc3[nH]2)CC1)c1ccc(OC)cc1	1300	520					
Brc1ccc(NCCN2CCN(CCc3c[nH]c4ccccc34)CC2)cc1	200	53	Active	480	3600	48	20
COc1ccc(NCCN2CCN(CCc3c[nH]c4ccccc34)CC2)cc1	620	430					
CCCN(CCN1CCN(CCc2c[nH]c3ccccc23)CC1)c1ccc(Br)cc1	89	58	Active	250	1300	51	0.72
CCCN(CCN1CCN(Cc2cc3ccccc3[nH]2)CC1)c1ccc(Br)cc1	600	220					
CCCN(CCN1CCN(CCc2c[nH]c3ccccc23)CC1)c1ccc(OC)cc1	280	120					
Brc1ccc(NCCN2CCN(Cc3cc4ccccc4[nH]3)CC2)cc1	2300	920					

Second part, led by results:

Ki [1] [nM]	Ki [2] [nM]	SMILES	Activity [3]	Ki [4] [nM]	Ki [5] [nM]	Ki [6] [nM]	Ki [7] [nM]
4300	4000	COc1ccc(CNCCN2CCN(Cc3cc4ccccc4[nH]3)CC2)cc1					
18000	7500	COc1ccc(NCCN2CCN(Cc3cc4ccccc4[nH]3)CC2)cc1					
4600	4100	CCCN(CCN1CCN(Cc2cc3ccccc3[nH]2)CC1)Cc1ccc(OC)cc1					
1800	5200	Brc1ccc(CNCCN2CCN(Cc3cc4ccccc4[nH]3)CC2)cc1					
